Source: publication PMC5218480 (PLoS ONE, 2017)

Tested on: MV-4-11 cells
Assay: Gene expression microarray analysis (Affymetrix PrimeView) and GSEA
Format: cell-based, human
Parameters: RFU PODN (11730768_x_at) / Fold change /veh PODN (11730768_x_at) / RFU LINC00158 (11744669_a_at) / Fold change /veh LINC00158 (11744669_a_at) / RFU DUSP10 (11751237_a_at) / Fold change /veh DUSP10 (11751237_a_at) / RFU ID3 (11757404_x_at) / Fold change /veh ID3 (11757404_x_at) / RFU PLEKHG5 (11737974_s_at) / Fold change /veh PLEKHG5 (11737974_s_at) / RFU LRRC4B (11730491_at) / Fold change /veh LRRC4B (11730491_at) / RFU GIMAP4 (11747438_a_at) / Fold change /veh GIMAP4 (11747438_a_at) / RFU KRT8 (11758183_x_at) / Fold change /veh KRT8 (11758183_x_at) / RFU CNN1 (11734310_a_at) / Fold change /veh CNN1 (11734310_a_at) / RFU VPS37D (11726825_at) / Fold change /veh VPS37D (11726825_at) / RFU C10orf10 (11716522_x_at) / Fold change /veh C10orf10 (11716522_x_at) / RFU KIR2DL2 /// KIR2DL4 /// KIR2DL5A /// KIR2DL5B /// KIR2DS1 /// KIR2DS2 /// KIR2DS3 /// KIR2DS4 /// KIR3DL3 /// KIR3DL3 /// KIR3DS1 (11738374_at) / Fold change /veh KIR2DL2 /// KIR2DL4 /// KIR2DL5A /// KIR2DL5B /// KIR2DS1 /// KIR2DS2 /// KIR2DS3 /// KIR2DS4 /// KIR3DL3 /// KIR3DL3 /// KIR3DS1 (11738374_at) / RFU C1QL1 (11718748_at) / Fold change /veh C1QL1 (11718748_at) / RFU TMPRSS4 (11747572_a_at) / Fold change /veh TMPRSS4 (11747572_a_at) / RFU HAMP (11756126_x_at) / Fold change /veh HAMP (11756126_x_at) / RFU RNFT2 (11725882_a_at) / Fold change /veh RNFT2 (11725882_a_at) / RFU NR4A2 (11747474_a_at) / Fold change /veh NR4A2 (11747474_a_at) / RFU ABCC12 (11746883_a_at) / Fold change /veh ABCC12 (11746883_a_at) / RFU TMEM136 (11760407_x_at) / Fold change /veh TMEM136 (11760407_x_at) / RFU CLDN22 /// WWC2 (11732394_at) / Fold change /veh CLDN22 /// WWC2 (11732394_at) / RFU HLA-DPB1 (11760878_x_at) / Fold change /veh HLA-DPB1 (11760878_x_at) / RFU SPINT1 (11716480_a_at) / Fold change /veh SPINT1 (11716480_a_at) / RFU GAP43 (11754022_s_at) / Fold change /veh GAP43 (11754022_s_at) / RFU A4GNT (11735810_at) / Fold change /veh A4GNT (11735810_at) / RFU PRB3 (11715151_x_at) / Fold change /veh PRB3 (11715151_x_at) / RFU TUBB4B (11761932_at) / Fold change /veh TUBB4B (11761932_at) / RFU CAPN14 (11732068_a_at) / Fold change /veh CAPN14 (11732068_a_at) / RFU TMCC2 (11721928_a_at) / Fold change /veh TMCC2 (11721928_a_at) / RFU IRGQ (11745062_a_at) / Fold change /veh IRGQ (11745062_a_at) / RFU FAM174B (11720279_a_at) / Fold change /veh FAM174B (11720279_a_at) / RFU TMPRSS4 (11748680_a_at) / Fold change /veh TMPRSS4 (11748680_a_at) / RFU FAM212B (11763350_a_at) / Fold change /veh FAM212B (11763350_a_at) / RFU PLEKHG5 (11743358_a_at) / Fold change /veh PLEKHG5 (11743358_a_at) / RFU ZSCAN30 (11745921_a_at) / Fold change /veh ZSCAN30 (11745921_a_at) / RFU CMKLR1 (11741424_a_at) / Fold change /veh CMKLR1 (11741424_a_at) / RFU LOC101060620 /// MAPK8IP1 (11723275_at) / Fold change /veh LOC101060620 /// MAPK8IP1 (11723275_at) / RFU SPTSSB (11747773_x_at) / Fold change /veh SPTSSB (11747773_x_at) / RFU PRSS12 (11739890_at) / Fold change /veh PRSS12 (11739890_at) / RFU BIN1 (11741810_x_at) / Fold change /veh BIN1 (11741810_x_at) / RFU WNT11 (11732464_a_at) / Fold change /veh WNT11 (11732464_a_at) / RFU C10orf10 (11716521_a_at) / Fold change /veh C10orf10 (11716521_a_at) / RFU C5orf56 (11738089_at) / Fold change /veh C5orf56 (11738089_at) / RFU CYB561 (11721691_x_at) / Fold change /veh CYB561 (11721691_x_at) / RFU ANKRD19P (11752326_a_at) / Fold change /veh ANKRD19P (11752326_a_at) / RFU OR2T12 /// OR2T33 /// OR2T8 (11738714_s_at) / Fold change /veh OR2T12 /// OR2T33 /// OR2T8 (11738714_s_at) / RFU VCAN (11748164_a_at) / Fold change /veh VCAN (11748164_a_at) / RFU JSRP1 (11732532_at) / Fold change /veh JSRP1 (11732532_at) / RFU KRTAP10-11 (11738290_x_at) / Fold change /veh KRTAP10-11 (11738290_x_at) / RFU MYO3A (11730013_a_at) / Fold change /veh MYO3A (11730013_a_at) / RFU EBF3 (11725865_a_at) / Fold change /veh EBF3 (11725865_a_at) / RFU CAMK2N1 (11719241_x_at) / Fold change /veh CAMK2N1 (11719241_x_at) / RFU C5orf56 (11738088_a_at) / Fold change /veh C5orf56 (11738088_a_at) / RFU OLFML3 (11715873_a_at) / Fold change /veh OLFML3 (11715873_a_at) / RFU LOC100653217 /// NTM (11731650_a_at) / Fold change /veh LOC100653217 /// NTM (11731650_a_at) / RFU MAPK11 (11762145_a_at) / Fold change /veh MAPK11 (11762145_a_at) / RFU FIZ1 (11724087_x_at) / Fold change /veh FIZ1 (11724087_x_at) / RFU OASL (11726364_x_at) / Fold change /veh OASL (11726364_x_at) / RFU SOX15 (11748057_x_at) / Fold change /veh SOX15 (11748057_x_at) / RFU CD79A (11719716_a_at) / Fold change /veh CD79A (11719716_a_at) / RFU HIST1H1D (11736915_at) / Fold change /veh HIST1H1D (11736915_at) / RFU CASKIN2 (11723855_a_at) / Fold change /veh CASKIN2 (11723855_a_at) / RFU LOC730098 (11760151_x_at) / Fold change /veh LOC730098 (11760151_x_at) / RFU OR4N2 (11742367_at) / Fold change /veh OR4N2 (11742367_at) / RFU PRRT2 (11749266_a_at) / Fold change /veh PRRT2 (11749266_a_at) / RFU SNX32 (11753110_a_at) / Fold change /veh SNX32 (11753110_a_at) / RFU CDHR5 (11726645_a_at) / Fold change /veh CDHR5 (11726645_a_at) / RFU RCAN1 (11760418_a_at) / Fold change /veh RCAN1 (11760418_a_at) / RFU FAM167A (11723789_a_at) / Fold change /veh FAM167A (11723789_a_at) / RFU FAM26E (11764081_at) / Fold change /veh FAM26E (11764081_at) / RFU ISYNA1 (11749810_s_at) / Fold change /veh ISYNA1 (11749810_s_at) / RFU ACY1 (11761880_at) / Fold change /veh ACY1 (11761880_at) / RFU 11764098_at / Fold change /veh 11764098_at / RFU SAMD14 (11745864_x_at) / Fold change /veh SAMD14 (11745864_x_at) / RFU NPB (11741838_a_at) / Fold change /veh NPB (11741838_a_at) / RFU TMPRSS6 (11731388_a_at) / Fold change /veh TMPRSS6 (11731388_a_at) / RFU KRTAP10-2 (11738614_at) / Fold change /veh KRTAP10-2 (11738614_at) / RFU ARHGAP8 /// PRR5-ARHGAP8 (11727945_x_at) / Fold change /veh ARHGAP8 /// PRR5-ARHGAP8 (11727945_x_at) / RFU KRTAP5-7 /// NADSYN1 (11734609_at) / Fold change /veh KRTAP5-7 /// NADSYN1 (11734609_at) / RFU RASL12 (11751679_a_at) / Fold change /veh RASL12 (11751679_a_at) / RFU CDKN2B (11736163_a_at) / Fold change /veh CDKN2B (11736163_a_at) / RFU PRF1 (11729649_at) / Fold change /veh PRF1 (11729649_at) / RFU, ZNF638 /// ZNF638-IT1 / Fold change vs veh, ZNF638 /// ZNF638-IT1 / RFU, PANK3 / Fold change vs veh, PANK3 / RFU, SH3YL1 / Fold change vs veh, SH3YL1 / RFU, ZEB2 / Fold change vs veh, ZEB2 / RFU, NRIP1 / Fold change vs veh, NRIP1 / RFU, PTTG1IP / Fold change vs veh, PTTG1IP / RFU, CAPN2 / Fold change vs veh, CAPN2 / RFU, MED14 / Fold change vs veh, MED14 / RFU, SNORA58 / Fold change vs veh, SNORA58 / RFU, C1orf63 / Fold change vs veh, C1orf63 / RFU, LRRFIP1 / Fold change vs veh, LRRFIP1 / RFU, NDUFAF7 / Fold change vs veh, NDUFAF7 / RFU, SLC12A2 / Fold change vs veh, SLC12A2 / RFU, IBTK / Fold change vs veh, IBTK / RFU, ESF1 / Fold change vs veh, ESF1 / Fold change vs veh, TMEM50B / RFU, TAOK1 / Fold change vs veh, TAOK1 / RFU, ACBD3 / Fold change vs veh, ACBD3 / RFU, TMA16 / Fold change vs veh, TMA16 / RFU, RWDD3 / Fold change vs veh, RWDD3 / RFU, BCAT1 / Fold change vs veh, BCAT1 / RFU, EDEM3 / Fold change vs veh, EDEM3 / RFU, TMEM33 / Fold change vs veh, TMEM33 / RFU, WDR75 / Fold change vs veh, WDR75 / RFU, AHCTF1 / Fold change vs veh, AHCTF1 / RFU, TFRC / Fold change vs veh, TFRC / RFU, ZDHHC17 / Fold change vs veh, ZDHHC17 / RFU, NOM1 / Fold change vs veh, NOM1 / RFU, ARL8B / Fold change vs veh, ARL8B / RFU, ZBTB11 / Fold change vs veh, ZBTB11 / RFU, TAMM41 / Fold change vs veh, TAMM41 / RFU, KIAA1704 /// LOC100996395 / Fold change vs veh, KIAA1704 /// LOC100996395 / RFU, ING1 / Fold change vs veh, ING1 / RFU, TRMT61B / Fold change vs veh, TRMT61B / RFU, FUBP3 / Fold change vs veh, FUBP3 / RFU, TP53 / Fold change vs veh, TP53 / RFU, TNKS2 / Fold change vs veh, TNKS2 / RFU, ZFP14 / Fold change vs veh, ZFP14 / RFU, ACTR2 / Fold change vs veh, ACTR2 / RFU, PPP3R1 / Fold change vs veh, PPP3R1 / RFU, PIK3R1 / Fold change vs veh, PIK3R1 / RFU, HNRNPA1 / Fold change vs veh, HNRNPA1 / RFU, RNF170 / Fold change vs veh, RNF170 / RFU, ZNF28 / Fold change vs veh, ZNF28 / RFU, RNGTT / Fold change vs veh, RNGTT / RFU, OGT / Fold change vs veh, OGT / RFU, BRD1 / Fold change vs veh, BRD1 / RFU, MARS / Fold change vs veh, MARS / RFU, ZNF655 / Fold change vs veh, ZNF655 / RFU, FAHD1 / Fold change vs veh, FAHD1 / RFU, BDP1 / Fold change vs veh, BDP1 / RFU, LRRCC1 / Fold change vs veh, LRRCC1 / RFU, ARID1A / Fold change vs veh, ARID1A / RFU, ZNF146 / Fold change vs veh, ZNF146 / RFU, ZNF330 / Fold change vs veh, ZNF330 / RFU, GPN3 / Fold change vs veh, GPN3 / RFU, C9orf123 / Fold change vs veh, C9orf123 / RFU, N4BP2L2 / Fold change vs veh, N4BP2L2 / RFU, ARFIP1 / Fold change vs veh, ARFIP1 / RFU, FAM179B / Fold change vs veh, FAM179B / RFU, BCL10 / Fold change vs veh, BCL10 / RFU, UHRF1BP1L / Fold change vs veh, UHRF1BP1L / RFU, BET1 / Fold change vs veh, BET1 / RFU, CNOT2 / Fold change vs veh, CNOT2 / RFU, ZNF268 / Fold change vs veh, ZNF268 / Fold change vs veh, ZNF507 / RFU, DGCR2 / Fold change vs veh, DGCR2 / RFU, WDSUB1 / Fold change vs veh, WDSUB1 / Fold change vs veh, HSP90B1 /// MIR3652 / RFU, ADSS / Fold change vs veh, ADSS / RFU, GK / Fold change vs veh, GK / RFU, ZNF148 / Fold change vs veh, ZNF148 / RFU, TAF9 / Fold change vs veh, TAF9 / RFU, SLC1A5 / Fold change vs veh, SLC1A5 / RFU, SLMO2 / Fold change vs veh, SLMO2 / RFU, ABCC4 / Fold change vs veh, ABCC4 / RFU, LOC101060439 /// RAP1B / Fold change vs veh, LOC101060439 /// RAP1B / RFU, RFX7 / Fold change vs veh, RFX7 / RFU, GTPBP10 / Fold change vs veh, GTPBP10 / RFU, CNEP1R1 / Fold change vs veh, CNEP1R1 / RFU, BIVM-ERCC5 /// ERCC5 / Fold change vs veh, BIVM-ERCC5 /// ERCC5 / RFU, ILF3 / Fold change vs veh, ILF3 / RFU 11762660_at / Fold change /veh 11762660_at / RFU VCAN (11757783_s_at) / Fold change /veh VCAN (11757783_s_at) / RFU DDX43 (11728927_at) / Fold change /veh DDX43 (11728927_at) / RFU KRT8 (11758188_x_at) / Fold change /veh KRT8 (11758188_x_at) / RFU NKD1 (11759106_at) / Fold change /veh NKD1 (11759106_at) / RFU SRD5A1 (11742802_a_at) / Fold change /veh SRD5A1 (11742802_a_at) / RFU TPSAB1 /// TPSB2 (11721975_s_at) / Fold change /veh TPSAB1 /// TPSB2 (11721975_s_at) / RFU GSTM3 (11746129_a_at) / Fold change /veh GSTM3 (11746129_a_at) / RFU IL23R (11737362_x_at) / Fold change /veh IL23R (11737362_x_at) / RFU TMEM51 (11727254_a_at) / Fold change /veh TMEM51 (11727254_a_at) / RFU PIWIL2 (11732686_x_at) / Fold change /veh PIWIL2 (11732686_x_at) / RFU ORM1 (11744905_x_at) / Fold change /veh ORM1 (11744905_x_at) / RFU CCDC152 (11743942_at) / Fold change /veh CCDC152 (11743942_at) / RFU ECM1 (11717891_a_at) / Fold change /veh ECM1 (11717891_a_at) / RFU IL23R (11748794_a_at) / Fold change /veh IL23R (11748794_a_at) / RFU TNFAIP8L3 (11732012_x_at) / Fold change /veh TNFAIP8L3 (11732012_x_at) / RFU MBOAT4 (11741988_at) / Fold change /veh MBOAT4 (11741988_at) / RFU 11764193_at / Fold change /veh 11764193_at / RFU TMEM53 (11763286_at) / Fold change /veh TMEM53 (11763286_at) / RFU MAGEB2 (11727129_at) / Fold change /veh MAGEB2 (11727129_at) / RFU TMEM200A (11744735_a_at) / Fold change /veh TMEM200A (11744735_a_at) / RFU CCDC152 (11751479_a_at) / Fold change /veh CCDC152 (11751479_a_at) / RFU FAM211A (11726209_a_at) / Fold change /veh FAM211A (11726209_a_at) / RFU RGS16 (11746705_a_at) / Fold change /veh RGS16 (11746705_a_at) / RFU VCAN (11755009_s_at) / Fold change /veh VCAN (11755009_s_at) / RFU RHOB (11743442_s_at) / Fold change /veh RHOB (11743442_s_at) / RFU RGS16 (11720943_a_at) / Fold change /veh RGS16 (11720943_a_at) / RFU RGS16 (11720944_at) / Fold change /veh RGS16 (11720944_at) / RFU, VPS4B / Fold change vs veh, VPS4B / RFU, CREB1 / Fold change vs veh, CREB1 / RFU, DNAJC13 / Fold change vs veh, DNAJC13 / RFU, GNAQ / Fold change vs veh, GNAQ / RFU, CDK5R1 / Fold change vs veh, CDK5R1 / RFU, ZRANB3 / Fold change vs veh, ZRANB3 / RFU, CUL4A / Fold change vs veh, CUL4A / RFU, CCNY / Fold change vs veh, CCNY / RFU, UFL1 / Fold change vs veh, UFL1 / RFU, COG3 / Fold change vs veh, COG3 / RFU, DIAPH2 / Fold change vs veh, DIAPH2 / RFU, SKA2 / Fold change vs veh, SKA2 / RFU, AFF3 / Fold change vs veh, AFF3 / RFU, LMF1 / Fold change vs veh, LMF1 / RFU, IPO11 / Fold change vs veh, IPO11 / RFU, DFFB / Fold change vs veh, DFFB / RFU, FOXP1 / Fold change vs veh, FOXP1 / RFU, CARD8 / Fold change vs veh, CARD8 / RFU, STRN3 / Fold change vs veh, STRN3 / RFU, ADK / Fold change vs veh, ADK / RFU, RASSF2 / Fold change vs veh, RASSF2 / RFU, WIPF1 / Fold change vs veh, WIPF1 / RFU, LARP1B / Fold change vs veh, LARP1B / RFU, RASA1 / Fold change vs veh, RASA1 / RFU, RB1 / Fold change vs veh, RB1 / RFU, PPFIA1 / Fold change vs veh, PPFIA1 / RFU, MAT2A / Fold change vs veh, MAT2A / RFU, CCT5 / Fold change vs veh, CCT5 / RFU, WDR92 / Fold change vs veh, WDR92 / RFU, CUX1 / Fold change vs veh, CUX1 / RFU, TTC7A / Fold change vs veh, TTC7A / RFU, TMEM135 / Fold change vs veh, TMEM135 / RFU, DEPTOR / Fold change vs veh, DEPTOR / RFU, CPM / Fold change vs veh, CPM / RFU, DNAJB6 / Fold change vs veh, DNAJB6 / RFU, CACNA2D3 / Fold change vs veh, CACNA2D3 / RFU, DTX4 / Fold change vs veh, DTX4 / RFU, TFCP2 / Fold change vs veh, TFCP2 / RFU, GMCL1 /// GMCL1P1 / Fold change vs veh, GMCL1 /// GMCL1P1 / RFU, AEBP2 / Fold change vs veh, AEBP2 / RFU, SNHG1 /// SNORD22 /// SNORD25 /// SNORD26 /// SNORD27 /// SNORD28 /// SNORD29 /// SNORD31 / Fold change vs veh, SNHG1 /// SNORD22 /// SNORD25 /// SNORD26 /// SNORD27 /// SNORD28 /// SNORD29 /// SNORD31 / Fold change (Aza/veh), C12orf56 (ProbeSet 11735607_a_at) / Fold change (ACY-1035/veh), C12orf56 (ProbeSet 11735607_a_at) / Fold change (Aza/veh), FGFR1OP (ProbeSet 11751329_s_at) / Fold change (ACY-1035/veh), FGFR1OP (ProbeSet 11751329_s_at) / Fold change (Aza/veh), VPS36 (ProbeSet 11739960_a_at) / Fold change (ACY-1035/veh), VPS36 (ProbeSet 11739960_a_at) / RFU SYPL1 (11715823_x_at) / Fold change /veh SYPL1 (11715823_x_at) / RFU IGFBP7 (11715501_s_at) / Fold change /veh IGFBP7 (11715501_s_at) / RFU REEP3 (11722064_at) / Fold change /veh REEP3 (11722064_at) / RFU IGLL1 (11728026_x_at) / Fold change /veh IGLL1 (11728026_x_at): dose or concentration left out as unconfirmed
Conditions: ProbeSet 11755425_a_at; LIST B

In the case of `Nc1ccc(-c2cccs2)cc1NC(=O)c1ccc2c(c1)cc(C1CC1)n2CCN1CCOCC1` [ACY-1035], the “Fold change vs veh, FAM179B” value is reported as 1.02.
